Measurements reported in the NIST ThermoML archive (doi:10.1021/je200721d).

Experiment: xn = mol fraction of the nth substance listed
Conditions: Liquid, Vibrating tube method

CCCCCCCCCC [decane] + CCCCCC
Conditions	mass density [kg/m3]
313.18 K, 22000 kPa, x2 = 0.7524	687.87
313.18 K, 23000 kPa, x2 = 0.0456	730.42
313.18 K, 23000 kPa, x2 = 0.7524	688.65
313.18 K, 24000 kPa, x2 = 0.0456	731.08
313.18 K, 24000 kPa, x2 = 0.7524	689.4
313.18 K, 25000 kPa, x2 = 0.0456	731.73
313.18 K, 25000 kPa, x2 = 0.7524	690.14
313.21 K, 1000 kPa, x2 = 0.4968	688.23
313.21 K, 2000 kPa, x2 = 0.4968	689.24
313.21 K, 3000 kPa, x2 = 0.4968	690.26
313.21 K, 4000 kPa, x2 = 0.4968	691.19
313.21 K, 5000 kPa, x2 = 0.4968	692.15
313.21 K, 6000 kPa, x2 = 0.4968	693.12
313.21 K, 7000 kPa, x2 = 0.4968	694.03
313.21 K, 8000 kPa, x2 = 0.4968	694.95
313.21 K, 9000 kPa, x2 = 0.4968	695.84
313.21 K, 10000 kPa, x2 = 0.4968	696.74
313.21 K, 10990 kPa, x2 = 0.4968	697.6
313.21 K, 12000 kPa, x2 = 0.4968	698.47
313.21 K, 13000 kPa, x2 = 0.4968	699.32
313.21 K, 14000 kPa, x2 = 0.4968	700.16
313.21 K, 15000 kPa, x2 = 0.4968	700.95
313.21 K, 16000 kPa, x2 = 0.4968	701.76
313.21 K, 17000 kPa, x2 = 0.4968	702.55
313.21 K, 18000 kPa, x2 = 0.4968	703.34
313.21 K, 19000 kPa, x2 = 0.4968	704.08
313.21 K, 20000 kPa, x2 = 0.4968	704.83
313.21 K, 21000 kPa, x2 = 0.4968	705.58
313.21 K, 22000 kPa, x2 = 0.4968	706.34
313.21 K, 23000 kPa, x2 = 0.4968	707.05
313.21 K, 24000 kPa, x2 = 0.4968	707.76
313.21 K, 25000 kPa, x2 = 0.4968	708.45
322.99 K, 1000 kPa, x2 = 0.8991	645.29
322.99 K, 2000 kPa, x2 = 0.8991	646.4
322.99 K, 3000 kPa, x2 = 0.8991	647.52
322.99 K, 4000 kPa, x2 = 0.8991	648.64
322.99 K, 5000 kPa, x2 = 0.8991	649.64
322.99 K, 6000 kPa, x2 = 0.8991	650.89
322.99 K, 7000 kPa, x2 = 0.8991	652.02
322.99 K, 8000 kPa, x2 = 0.8991	653.14
322.99 K, 9000 kPa, x2 = 0.8991	654.27
322.99 K, 10000 kPa, x2 = 0.8991	655.38
322.99 K, 11000 kPa, x2 = 0.8991	656.46
322.99 K, 12000 kPa, x2 = 0.8991	657.57
322.99 K, 13000 kPa, x2 = 0.8991	658.64
322.99 K, 14000 kPa, x2 = 0.8991	659.7
322.99 K, 15000 kPa, x2 = 0.8991	660.74
322.99 K, 16000 kPa, x2 = 0.8991	661.75
322.99 K, 17000 kPa, x2 = 0.8991	662.76
322.99 K, 18000 kPa, x2 = 0.8991	663.71
322.99 K, 19000 kPa, x2 = 0.8991	664.67
322.99 K, 20000 kPa, x2 = 0.8991	665.59
322.99 K, 21000 kPa, x2 = 0.8991	666.49
322.99 K, 22000 kPa, x2 = 0.8991	667.35
322.99 K, 23000 kPa, x2 = 0.8991	668.19
322.99 K, 24000 kPa, x2 = 0.8991	669.02
322.99 K, 25000 kPa, x2 = 0.8991	669.89
323.14 K, 1000 kPa, x2 = 0.0456	705.56
323.14 K, 1000 kPa, x2 = 0.2185	697.1
323.14 K, 1000 kPa, x2 = 0.4968	679.98
323.14 K, 2000 kPa, x2 = 0.0456	706.52
323.14 K, 2000 kPa, x2 = 0.2185	698.02
323.14 K, 2000 kPa, x2 = 0.4968	681.03
323.14 K, 3000 kPa, x2 = 0.0456	707.47
323.14 K, 3000 kPa, x2 = 0.2185	698.97
323.14 K, 3000 kPa, x2 = 0.4968	682.14
323.14 K, 4000 kPa, x2 = 0.0456	708.4
323.14 K, 4000 kPa, x2 = 0.2185	699.88
323.14 K, 4000 kPa, x2 = 0.4968	683.21
323.14 K, 5000 kPa, x2 = 0.0456	709.32
323.14 K, 5000 kPa, x2 = 0.2185	700.82
323.14 K, 5000 kPa, x2 = 0.4968	684.24
323.14 K, 6000 kPa, x2 = 0.0456	710.22
323.14 K, 6000 kPa, x2 = 0.2185	701.75
323.14 K, 6000 kPa, x2 = 0.4968	685.27
323.14 K, 7000 kPa, x2 = 0.0456	711.11
323.14 K, 7000 kPa, x2 = 0.2185	702.67
323.14 K, 7000 kPa, x2 = 0.4968	686.28
323.14 K, 8000 kPa, x2 = 0.0456	711.99
323.14 K, 8000 kPa, x2 = 0.2185	703.58
323.14 K, 8000 kPa, x2 = 0.4968	687.29
323.14 K, 9000 kPa, x2 = 0.0456	712.86
323.14 K, 9000 kPa, x2 = 0.2185	704.45
323.14 K, 9000 kPa, x2 = 0.4968	688.27
323.14 K, 10000 kPa, x2 = 0.0456	713.72
323.14 K, 10000 kPa, x2 = 0.2185	705.32
323.14 K, 10000 kPa, x2 = 0.4968	689.22
323.14 K, 10990 kPa, x2 = 0.0456	714.56
323.14 K, 10990 kPa, x2 = 0.2185	706.19
323.14 K, 10990 kPa, x2 = 0.4968	690.14
323.14 K, 12000 kPa, x2 = 0.0456	715.39
323.14 K, 12000 kPa, x2 = 0.2185	707.05
323.14 K, 12000 kPa, x2 = 0.4968	691.07
323.14 K, 13000 kPa, x2 = 0.0456	716.21
